What is called IC50 is the concentration that gives 50% inhibition. One may read the Papp A→B as the apparent permeability from the apical to the basolateral side of a cell layer. Higher therefore signals fast passage. In general, Papp B→A refers to how fast a substance crosses the layer from the basolateral side.

Where “and” joins values, the source holds several entries; their conditions need not be identical. Identical values can stand only once.

The results in this text go back to patent publication US10603319B2, “Pyrimidine derivatives and their use in treating or preventing a respiratory syncytial virus infection” (REVIRAL LIMITED, priority 2016, dated 2020).

For one data set, the system named is RSV A2 VR-1540. The experiment in a line: Plaque Reduction Assay 2 (HEp-2 cells, virospot count). The note with it: human respiratory syncytial virus, 24 h; RSV A2, HEp-2 cells, 1 day. The data set is classed as cell-based. The source says:
Plaque Reduction Assay 2:
This RSV plaque reduction assay is an infectivity assay which allows quantification of the number of infectious units in a distinct foci of RSV infection. This is indicated by zones of viral antigen detected by specific antibody staining within a monolayer of otherwise healthy tissue culture cells. As each plaque originates from a single infectious virus particle an accurate calculation of the anti-viral effect can be obtained by counting plaques in the presence and absence of an anti-viral compound. HEp-2 cells (ATCC, CCL23) were passaged in flasks and seeded in 96-well plates in DMEM containing antibiotics and supplemented with 10% FBS. During inoculation and subsequent incubation, cells were cultured in DMEM containing 3% FBS. 100 plaque forming unit (PFU)/well of RSV (RSV A2 VR-1540) was mixed with ten serial dilutions of compound. Subsequently, 100 μL of the virus/compound mixtures was added to confluent HEp-2 cell monolayers. The cells and virus/compound mixtures were incubated at 35° C. in a humidified 5% CO2 incubator for 1 day.
Cells were washed twice with PBS before adding 50% v/v EtOH/MeOH, and then stored at −20° C. On the day of the staining, fixative was first removed from the plates. Plates were washed 3× with PBS. A pre-titrated amount of the primary antibody was added in 60 μL PBS/2% milk powder, and plates incubated for 1 h at rt. The plates were washed 3× with PBS/0.05% Tween20 before addition of goat anti-mouse horse radish peroxidase in 60 μL PBS/2% milk powder, and incubated for 1 h at rt. Following three wash steps with PBS/0.05% Tween20, 60 μL ready-to-use TrueBlue was added and plates were incubated at rt for 10-15 min before adding MilliQ water. Plates were washed once with water, incubated for 30-60 min and after removal of water, air-dried in the dark.
Plates were scanned and analyzed using the Immunospot S6 UV analyzer, which is equipped with BioSpot analysis software for counting immunostained plaques (virospots). Plaque counts were used to calculate % infection relative to the mean of the spot count (SC) in the virus control wells for RSV. IC50/IC90 values were calculated as 50% or 90% reduction in signal, respectively, by interpolation of inhibition curves fitted with a 4-parameter nonlinear regression with a variable slope in GraphPad 5.0 (Prism).
A general note: Plaques are areas of infected cells; plaque reduction assays count them against a control.

Another data set has as its system RSV A2. As to the kind of experiment: Plaque Reduction Assay 1 (Vero cells, immunostaining). Format: cell-based. The note with it: two replicate values, read-out: RSV Plaque Reduction assays A2 (PRNT1) (n = 2) IC50. As for the experimental part: Plaque Reduction Assay 1: Vero cells were seeded in 96-well plates in a volume of 100 μL of Optimem supplemented with 3% FCS at a concentration of 4×10^4 cells per well. After an overnight incubation at 37° C. in a humidified 5% CO2 atmosphere, the monolayer of cells should be approximately 90% confluent. Antiviral compounds were titrated in pre-warmed Serum Free (SF) Optimem in a U-bottom 96 well plate. For compounds in a DMSO solution, titration in 100% DMSO was performed first and each concentration added individually to a 2× final concentration at 4% DMSO in SF media before mixing with virus (2% final DMSO with virus). Media was then removed from cells and replaced with PBS (100 μl/well). RSV stock was thawed and diluted in SF Optimem media to 4000 PFU/mLl. An equal volume of virus was added to compounds on the titration plate. PBS was removed from cells which were then inoculated with the virus/compound solution (50 μL/well). Cells were incubated for 2 h in a 37° C.+5% CO2 humidified incubator to allow infection. Inoculum was removed and media (Optimem+1% FCS) added to cells (100 μl/well). Cells were subsequently incubated for 48 h at 37° C.+5% CO2 in a humidified incubator. Immunostaining Procedure: Media was removed from cells and the monolayer washed with PBS. Cells were fixed with ice cold 80% Acetone in PBS (100 μl/well) for 20 mins at −20° C. Fixative was removed and cells are dried for 30 mins with plates inverted. Blocking solution (5% skim milk powder in PBS-T) was added to cells (150 μL/well) and plates were incubated for 30 mins at room temperature. Blocking solution was removed and plates washed once with PBS-T. Primary antibody in blocking solution was added to plates (50 μl/well) and incubated for 1 h at 37° C. Plates were then washed 3 times with PBS-T. Secondary antibody in blocking solution was added to plates ([…]) and incubated for 1 h at 37° C. in the dark. Plates were washed as above and then dried for 10 mins. Plates were scanned on the Odyssey Imager (Li-Cor Biosciences) at a resolution of […], medium quality and level 5 intensity in the […]. Data Analysis: Images obtained were saved and plaque numbers counted with the aid of computer imaging software. EC50 values for compounds were derived from dose response curves [three variable log(inhibitor) vs response] obtained using Graphpad Prism software.

The subject of another data set is P-gp (MDR1), human. As to the kind of experiment: in vitro. The data set is classed as in vitro ADME. The note with it: dog, MDCK-MDR1. The method, then: MDR I-MDCK Permeability: Experimental Procedure
MDR1-MDCK cells obtained from the NIH (Rockville, Md., USA) are used between passage numbers 6-30. Cells are seeded onto Millipore Multiscreen Transwell plates at 3.4×10^5 cells/cm2. The cells are cultured in DMEM and media is changed on day 3. On day 4 the permeability study is performed. Cell culture and assay incubations are carried out at 37° C. in an atmosphere of 5% CO2 with a relative humidity of 95%. On the day of the assay, the monolayers are prepared by rinsing both basolateral and apical surfaces twice with Hanks Balanced Salt Solution (HBSS) at the desired pH warmed to 37° C. Cells are then incubated with HBSS at the desired pH in both apical and basolateral compartments for 40 min to stabilise physiological parameters.
The dosing solutions are prepared by diluting test compound with assay buffer to give a final test compound concentration of 10 μM (final DMSO concentration of 1% v/v). […]
Test compound permeability is assessed in duplicate. […]
Test and control compounds are quantified by LC-MS/MS cassette analysis using an 8-point calibration with appropriate dilution of the samples. The starting concentration (C0) is determined from the dosing solution and the experimental recovery calculated from C0 and both apical and basolateral compartment concentrations. […]

Consider `NC1CCN(c2ncc(CN3C(=O)C4(CC4)c4ccc(F)cc43)c(N[C@H]3CC[C@H](O)CC3)n2)C1` (stereo partly shown) [Compound 2, 1′-((2-(3-Aminopyrrolidin-1-yl)-4-(((1r,4r)-4-hydroxycyclohexyl)amino)pyrimidin-5-yl)methyl)-6′-fluorospiro[cyclopropane-1,3′-indolin]-2′-one], for which half-maximal inhibition with RSV A2 VR-1540 (IC50) was put at 58 nM. Also, the IC50 with RSV A2 is 18.9 nM and 4.63 nM. In the data set on P-gp (MDR1), human, this molecule had a Papp A→B at 60 min, 10 μM of 0.32 ×10⁻⁶ cm/s and a Papp B→A at 60 min, 10 μM of 7.99 ×10⁻⁶ cm/s.
